In series [1] the target is T1, recombinant full-length WRN protein (1-1432) (Homo sapiens, UniProt Q14191).
T1 construct: recombinant full-length WRN protein (1-1432)
The series can be described thus: WRN unwinding activity, fluorogenic 384-well assay (Example A). The class given is biochemical. The following applies: WRN unwinding activity, Table 2; for IC50: 4 hr, read-out: 4 hr UNW pIC50 (converted). In a few lines: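 200 pM enzyme (2× stock) preincubated with compound 4 h at ambient temperature, then 200 μM ATP and 12 nM quenched TAMRA-labelled dsDNA (2× stocks) added for 60 min; EDTA-quenched. Buffer 25 mM Tris pH 8.0, 5 mM NaCl, 2 mM MgCl2. Fluorescence at 525/598 nm; pIC50 from four-parameter fit.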

Series [2] has as its system SW48 human colorectal cancer cells (MSI-H cancer cells).
The subject of series [3] is SW48 human colorectal cancer cell line xenografts. The series can be described thus: In vivo efficacy in mouse model bearing SW48 xenografts (Example D). The following applies: SW48 xenograft, female nude mice. As for the experimental part:
In Viva Efficacy Study of Test Compounds in Mouse Model Bearing SW48 Human Colorectal Cancer Cell Line Xenografts
Experiments were performed with female Crl:Nu-Foxn1^nu nude mice. Animals were housed under optimized hygienic condition with food and water at libitum and a 12 h:12 h light:dark cycle. Animals were allowed to acclimatize for at least 4 days before being enrolled in the experimental design.
SW48 human colorectal cancer cells (RRID:CVCL1724) were obtained from ATCC. The cells were cultured in RPMI 1640 with 10% Fetal Bovine Serum at 37° C. in atmosphere of 5% CO2 in air. To establish SW48 xenografts, cells were harvested and resuspended in serum free RPM11640 and Matrigel before inoculation and 5×10^6 SW48 tumor cells were injected subcutaneously in 100 μL volume using 27G1/2 needle. Cells were inoculated in the right hind flank of the animals.
Post cell inoculation, tumor growth was monitored daily, and animals were randomized into treatment groups (n=10/group) once the tumor volume reached an appropriate size (80-150 mm^3). Throughout the treatment period, both tumor volume and body weight were measured approximately twice a week. The tumor size, in mm^3, was computed using the formula: 0.5×L×W^2, where W=width and L=length of the tumor. To prepare a test compound for oral administration, between 30-120 mg of the test compound was dissolved in a vehicle solution consisting of 0.5% Methycellulose (cp 400) and 0.5% Tween 80. The compound was freshly prepared one hour prior to daily administration. If turbidity was observed, the solution was vortexed at over 2000 rpm for 10 minutes and mixed with a 1 mL syringe. The resulting solution formulation was utilized for in vivo studies.
Animals received either a vehicle or test compounds at dosage of 30 or 100 mg/kg daily through oral gavage (10 ml/kg). Body weight was measured twice a week using the Ohaus electronic scale (STX421) and the data was automatically added to the study log. Moreover, daily clinical observations were performed to closely monitor the animals. Tumor growth inhibition was computed using the following formula:
[formula] where T=current group value; T0=Current group initial value; C=Control group Value; C0=control group initial value.
Data of tumor volume were exported and analyzed in GraphPad Prism (9.5). The analysis included a two-way ANOVA test, comparing the vehicle control vs. treatments at different time points, followed by a Tukey HSD post hoc test.
The calculation of tumor regression was conducted as per the following formula:
[formula] where Day 0=treatment start day; Δ tumor volume=mean tumor volume on the evaluation day—mean tumor volume Day 0.

Series [4] relates to SW48 human colorectal cancer cells (MSI-H cancer cells). The series can be described thus: SW48 cell viability, CellTiter-Glo, 120 hours (Example B). Particulars: for CC50: Homo sapiens. A general note: In ATP-based viability assays light output follows the ATP content of the culture.
The test system of series [5] is SW48 human colorectal cancer cells. The series can be described thus: Calculated free drug potency in SW48 cell assay, corrected with media free fraction (Example C). The class given is cell-based. Particulars: Homo sapiens, SW48, SW48 pCC50 corrected with measured free fraction in cell assay media. In short, it runs like this:
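Compound spiked at nominal 1 μM into cell assay medium and dialysed against PBS (100 mM sodium phosphate, 150 mM NaCl, pH 7.4) by rapid equilibrium dialysis, 4 h, 37 °C, shaking. Percent unbound from LC-MS/MS peak area ratios (240 min vs 0 min); cell assay concentrations corrected by this free fraction.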

A short description of series [6]: Cell culture media unbound percentage and stability by rapid equilibrium dialysis (Example C). The class given is in vitro ADME. Particulars: bovine, cell assay medium (RPMI-1640 with 10% fetal bovine serum), pH 7.4, rapid equilibrium dialysis, 4 hours at 37° C., read-out: Cell Culture Media Binding (% unbound). In short, it runs like this: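 Compound spiked into cell culture medium at nominal 1 μM and dialysed against PBS (100 mM sodium phosphate + 150 mM NaCl, pH 7.4) by rapid equilibrium dialysis, triplicate, 4 h at 37° C with shaking. LC-MS/MS peak area ratios gave percent unbound (receiver/donor) and percent stability (240 min vs 0 min).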

[7] abbreviates: SW48, read-out: SW48 pCC50, measured potency from Example B, as repeated in Table 3 (converted).
The mark [8] stands for this setting: SW48, 120 h, read-out: SW48 pCC50, SW48 cell viability, 120 hours incubation (converted), Table 2.

Read-outs that look alike come from different tables or passages of the source.

T1 sequence (Q14191 whole entry): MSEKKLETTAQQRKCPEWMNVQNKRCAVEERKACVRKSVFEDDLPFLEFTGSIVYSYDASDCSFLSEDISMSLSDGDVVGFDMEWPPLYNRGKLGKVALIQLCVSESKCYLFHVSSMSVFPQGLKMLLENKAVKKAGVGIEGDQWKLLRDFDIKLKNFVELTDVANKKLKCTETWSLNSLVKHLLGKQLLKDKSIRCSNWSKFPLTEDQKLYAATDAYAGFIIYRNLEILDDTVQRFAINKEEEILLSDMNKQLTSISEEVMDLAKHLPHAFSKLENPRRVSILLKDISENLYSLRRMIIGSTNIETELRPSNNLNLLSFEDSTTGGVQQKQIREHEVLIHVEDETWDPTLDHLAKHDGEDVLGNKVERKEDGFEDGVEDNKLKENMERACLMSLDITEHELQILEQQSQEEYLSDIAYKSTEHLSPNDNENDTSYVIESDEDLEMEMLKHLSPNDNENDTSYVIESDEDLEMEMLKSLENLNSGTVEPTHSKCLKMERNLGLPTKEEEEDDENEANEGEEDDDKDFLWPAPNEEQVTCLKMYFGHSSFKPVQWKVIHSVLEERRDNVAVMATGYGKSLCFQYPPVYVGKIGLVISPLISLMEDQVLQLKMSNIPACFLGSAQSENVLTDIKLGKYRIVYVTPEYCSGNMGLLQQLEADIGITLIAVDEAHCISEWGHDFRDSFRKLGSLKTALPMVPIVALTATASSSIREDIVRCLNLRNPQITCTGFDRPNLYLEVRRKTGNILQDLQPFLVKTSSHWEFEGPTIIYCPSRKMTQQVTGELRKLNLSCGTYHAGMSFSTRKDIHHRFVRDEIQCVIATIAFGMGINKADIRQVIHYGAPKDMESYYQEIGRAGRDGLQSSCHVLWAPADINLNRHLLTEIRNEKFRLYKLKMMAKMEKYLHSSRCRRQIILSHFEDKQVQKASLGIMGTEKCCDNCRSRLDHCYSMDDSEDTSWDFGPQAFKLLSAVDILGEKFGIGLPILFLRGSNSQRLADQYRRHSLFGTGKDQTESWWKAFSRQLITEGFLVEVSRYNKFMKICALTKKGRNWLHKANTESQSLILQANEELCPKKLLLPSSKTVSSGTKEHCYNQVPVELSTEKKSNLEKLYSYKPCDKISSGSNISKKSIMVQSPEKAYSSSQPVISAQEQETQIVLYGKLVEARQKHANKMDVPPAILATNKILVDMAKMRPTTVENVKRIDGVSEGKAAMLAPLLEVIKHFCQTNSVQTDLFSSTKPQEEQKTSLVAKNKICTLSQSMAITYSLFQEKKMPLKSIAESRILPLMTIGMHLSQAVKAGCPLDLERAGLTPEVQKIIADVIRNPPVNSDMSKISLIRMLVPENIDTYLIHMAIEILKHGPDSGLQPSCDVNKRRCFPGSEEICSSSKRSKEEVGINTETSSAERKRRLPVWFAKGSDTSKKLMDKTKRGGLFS

In the case of `Cc1nc2cc(S(=O)(=O)Nc3ccc([C@H]4CCC[C@@H](C(=O)Nc5ccc(C(F)(F)F)cc5F)[C@@H]4C(=O)O)cc3)ccc2[nH]1` (relative stereo) [Example 259, rel-(1R,2R,6S)-2-((2-fluoro-4-(trifluoromethyl)phenyl)carbamoyl)-6-(4-((2-methyl-1H-benzo[d]imidazole)-5-sulfonamido)phenyl)cyclohexane-1-carboxylic acid], the “4 hr UNW pIC50” value in series [1] stood at 9.2. Besides, the “SW48 pCC50” value in series [2] is recorded as 5.4.

For `Cc1nc2cc(S(=O)(=O)N(C)c3ccc([C@H]4CCC[C@@H](C(=O)Nc5ccc(C(F)(F)F)cc5F)[C@@H]4C(=O)O)cc3)ccc2n1C` (single isomer, unassigned) [Example 83], the IC50 in series [1] is 0.00251 µM. Also, the mean tumor regression in series [3] (100 mpk daily oral, 55th day) is −24.01%. The values for the CC50 in series [4] (setting [7]) and in series [5] were 0.251 µM and 0.0129 µM, respectively. Further, the “SW48 pCC50” value in series [4] (SW48 cell viability, 120 hours incubation, Table 2) is 6.6. Moreover, the fraction unbound at 4 h, 1 µM in series [6] was determined as 0.065.

For the molecule `CCO[C@@H]1C[C@H](c2ccc(N(C)S(=O)(=O)c3ccc4c(c3)nc(C)n4C)cc2)[C@@H](C(=O)O)[C@H](C(=O)Nc2ccc(C(F)(F)F)cc2F)C1` (single isomer, unassigned) [Example 138], the IC50 in series [1] is 0.00316 µM. In addition, the mean tumor regression in series [3] (30 mpk orally once a day, 21st day) is on record as −74.26%. The CC50 in series [4] (setting [8]) was 0.251 µM; in series [4] (setting [7]), 0.251 µM; in series [5] it was 0.017 µM. Besides, in series [6], the fraction unbound at 4 h, 1 µM was 0.067.

As to `COC[C@@H]1C[C@H](c2ccc(N(C)S(=O)(=O)c3ccc4c(c3)nc(C)n4C)cc2)[C@@H](C(=O)O)[C@H](C(=O)Nc2ccc(C(F)(F)F)cc2F)C1` (single isomer, unassigned) [Example 250], the IC50 in series [1] is 0.00631 µM. Also, in series [3] (30 mpk daily oral, 21st day), the “tumor growth inhibition compared to the vehicle control” value stood at 72.95%. Moreover, the CC50 was 0.316 µM in series [4] (setting [8]), 0.316 µM in series [4] (setting [7]) and 0.00851 µM in series [5]. Besides, the fraction unbound at 4 h, 1 µM in series [6] is 0.027.

Consider `Cc1nc2cc(S(=O)(=O)N(C)c3ccc([C@H]4CCC[C@@H](COc5ccc(C(F)(F)F)cc5)[C@@H]4C(=O)O)cc3)cc([C@@H]3CCCNC3)c2n1C.Cl` (stereo in doubt) [Example 210, rel-(1R,2R,6S)-2-((4-(trifluoromethyl)phenoxy)methyl)-6-(4-((N,1,2-trimethyl-7-((S)-piperidin-3-yl)-1H-benzo[d]imidazole)-5-sulfonamido)phenyl)cyclohexane-1-carboxylic acid, hydrochloride], for which the “4 hr UNW pIC50” value in series [1] came to 5.7. Moreover, the “SW48 pCC50” value in series [2] turned out to be 4.9.

On to `CN(c1ccc([C@H]2CCC[C@@H](C(=O)Nc3ccc(C(F)(F)F)cc3F)[C@@H]2C(=O)O)cc1)S(=O)(=O)c1ccc(-n2cccn2)cc1` [Example 98, (1R,2R,6S)-2-((2-fluoro-4-(trifluoromethyl)phenyl)carbamoyl)-6-(4-((N-methyl-4-(1H-pyrazol-1-yl)phenyl)sulfonamido)phenyl)cyclohexane-1-carboxylic acid], for which the “4 hr UNW pIC50” value in series [1] is recorded as 8.6. For the same molecule, the “SW48 pCC50” value in series [2] is listed as 5.5.

With `Cc1nc2cc(S(=O)(=O)N(C)c3ccc([C@H]4C[C@@H](N5CCC(F)(F)C5)C[C@@H](C(=O)Nc5ccc(C(F)(F)F)cc5F)[C@@H]4C(=O)O)cc3)ccc2n1C` [Example 306, (1R,2R,4R,6S)-4-(3,3-difluoropyrrolidin-1-yl)-2-((2-fluoro-4-(trifluoromethyl)phenyl)carbamoyl)-6-(4-((N,1,2-trimethyl-1H-benzo[d]imidazole)-5-sulfonamido)phenyl)cyclohexane-1-carboxylic acid], the IC50 in series [1] is 0.00501 µM. The mean tumor regression in series [3] (30 mpk daily oral, 23rd day) is −73.2%. Besides, the CC50 was 0.1 µM in series [4] (setting [8]), 0.1 µM in series [4] (setting [7]) and 0.0102 µM in series [5]. Moreover, in series [6], the fraction unbound at 4 h, 1 µM worked out at 0.103.

The values are drawn from patent US12662451B2, “Chemical compounds and uses thereof” (GLAXOSMITHKLINE INTELLECTUAL PROPERTY (NO.4) LIMITED, priority 2023, dated 2026).
